The source of these data is PMC7754465, “Multiparameter Kinetic Analysis for Covalent Fragment Optimization by Using Quantitative Irreversible Tethering (qIT)” (Chembiochem, 2020).

Assay [1] concerns the target T1, Cdk2(ES) = Cdk2(F80C,C177A) (Homo sapiens, UniProt P24941, C177A/F80C).
T1 construct: GST (N, cleaved yes); made in house; host or cells: E. coli Tuner(DE3)
In words: quantitative irreversible tethering (qIT): rate of cysteine modification of Cdk2(ES). It counts as binding. The settings on record: for kinact/KI at 500 µM: Cdk2(ES) 5 μM, read-out: Cdk2(ES): kobs/[I]; for covalent SAR by REF-based qIT analysis: compared with acrylamide 1 or parent analogue. How it is done:
(§1) Figure 2 Comparison of previous and current applications of Quantitative irreversible tethering (qIT). a) Overview of rate determination. A cysteine‐containing biomolecule is treated with covalent fragments under pseudo‐first‐order conditions. Reaction progress is followed by discrete measurement of free cysteine concentration by using the fluorogenic probe CPM, and rate constants (k obs) are derived from exponential regression analysis. b) Comparison of the reactivity profile of each fragment with the POI and GSH typically classes them as unreactive, reactive but non‐selective or reactive and selective. c) Quantification of kinetic POI/GSH selectivity facilitates hit identification. d) The observed rate of reaction between the POI and hit fragment is determined at a range of ligand concentrations by using qIT. Subsequent hyperbolic regression analysis is used to derive K i and k inact to facilitate comprehensive covSAR analysis.
Therefore, we set out to develop novel classes of electrophile sensitive kinase inhibitors using a covalent fragment approach. Accordingly, we screened a 138‐member library of diverse cysteine‐reactive fragments at 500 μM against Cdk2(ES) and GSH by using the qIT platform and monitored the kinetics of cysteine‐modification over 24 hours. […] Using three standard deviations over the geometric mean REF as the statistical cut‐off for defining hit fragments (REF >27.9) yielded two acrylamide fragments, tetrahydroquinoline 1 (REF=81) and pyrimidine S1 (REF=64) for further investigation (Figures 3c and S2). […]
D. Rate determination by qIT
Reaction-plate setup: Each well of a 96-well PCR plate was charged with 60–100 µL of target thiol (GSH or protein, 10 µM) and 4% w/v TCEP-agarose beads in 100 mM phosphate buffer (pH 7.5 or 8) and cooled to 4 °C. Reactions were started by addition of an equal volume of pre-cooled electrophile solution (1 mM, 2% DMSO) in 0.1 M phosphate buffer (final concentra-tion: thiol = 5 µM, electrophile = 0.5 mM, 2% w/v TCEP-agarose beads), with a minimum of 4 wells per plate used as DMSO/thiol only controls. After mixing, TCEP-agarose was pelleted by centrifugation (1,300 rpm, 1 min) and the plate incu-bated at 4 °C. CPM Quench: At a series of time points (typically around 0.25, 0.5, 1, 2, 6, 24, 48, 72 and 120 hours after reac-tion initiation), 3 µL aliquots of each reaction were quenched into a 384-well fluorescence plate (Corning – black, NBS) where each well was charged with 27 µL of CPM solution (1.39 µM) in 100 mM phosphate buffer (pH 7.5) (final concentration: thiol = 0.5 µM, CPM = 1.25 µM). Quenching was typically performed in duplicate and fluorescence plates were incubated at room temperature for 60 minutes before fluorescence intensity (excitation/emission: 384/470 nm) was measured on an EnVisionTM plate reader. Analysis: All analysis was performed using Prism 8.0 software (GraphPad). For each time point, the fluorescence of each reaction was normalized relative Cdk2(ES)/GSH only control = maximum signal, DMSO only = minimum signal. The normalized fluorescence for each reaction was plotted against time. A one phase exponential decay was fitted to each plot (Constraints: Y(0) > 0.8; 0 < plateau = 0), yielding a pseudo first-order rate constant.
Cdk2 mutations were introduced by PCR and cloned into pGEX6P1 Cdk2 (552), a gift from Jonathon Pines (Addgene plasmid # 61845) used to express GST-Cdk2(WT). GST-Cdk2(ES) = GST-Cdk2(F80C,C177A). All constructs were verified by se-quencing. pGEX6P1 cyclin A2 (amino acids 173-432) was generated by PCR and restriction digestion. GST-CAK1 was con-structed by PCR amplification of S.cerevisiae genomic DNA and the product cloned into pKEG-KG. All protein expression was performed using an adapted autoinduction protocol:[8] Plasmids were transformed into E. coli Tuner(DE3) and cultures grown in autoinduction media at 37 °C until OD600 = 0.9. The cultures were then incubated at 18 °C for a further 40 hours before […]

Assay [2] in a line: qIT: rate of reaction with glutathione (intrinsic reactivity). The class given is physicochemical. The settings on record: fragment 0.5 mM, glutathione 5 μM. How it is done: Previously we described a fluorescence‐based platform for screening cysteine‐targeting covalent fragments called quantitative irreversible tethering (qIT). ^[19] The method measures and compares the rate of reactions of individual fragments with the protein‐of‐interest (POI) and GSH (Figure 2a and b).
as §1, with “covSAR analysis. […]” for “covSAR analysis.”

Assay [3] has as its target T2, Cdk2(ES) (Homo sapiens, UniProt P24941, C177A/F80C).
T2 construct: GST (N, cleaved yes); made in house; host or cells: E. coli Tuner(DE3)
In words: concentration-dependent qIT with hyperbolic regression (Ki, kinact). The class given is binding. Conditions: for kinact/KI / Ki / kinact: acrylamide 25-500 μM, Cdk2(ES) 5 μM; for Ki / kinact: hyperbolic fit of kobs. Here is the method: Next we sought to carry out comprehensive kinetic analysis of the covalent binding to better understand the covSAR trends. Accordingly, the concentration dependency for the rate of reaction between Cdk2(ES) and key acrylamides 1, 6, 9 and 11 were determined using qIT (Figure 7c). To maintain pseudo‐first‐order reaction kinetics and stay within the solubility limits of the fragments, ligands were titrated from 25 to 500 μM. […] Indeed, comparing the binding conformations of the merged (9 and 11) and parent (1 and 6) fragments, we observe a subtle shift in the position of the core scaffolds and the orientation of the acrylamide link that likely explains the jump in potency that resulted from fragment merging. Overall, comparing acrylamides 9 and 11, we observe in a 3.7‐fold increase in k inact/K i and a 4.3‐fold increase in REF, and the consistency between these two orthogonal metrics of covalent fragment potency is encouraging for future applications of qIT to covalent fragment optimization.
H. Intact-protein mass spectrometry
Protein-mass data were obtained on a Waters micromass LC-TOF mass spectrometer in positive ion mode using electrospray ionization. Samples were chromatographed using an Acquity UPLC protein BEH C4 column (2.1 mm × 50 mm, 2.7 µm) with a flow rate of 30 µL/min. The injection volume was 5 µL of protein solution (5 µM) in 30 mM ammonium bicarbonate buffer con-taining 0.5% formic acid and 20% MeOH. The gradient used was 100% mobile phase A (0.1% formic acid in water/MeOH (19:1)) ramping linearly to 90% mobile phase B (0.1% formic acid in MeOH) over 5 minutes. The spectra were acquired from 500 to 2500 Da and deconvolution was performed with MassLynx (Waters), using the maximum entropy algorithm, over a mass range of […] with a mass step of 0.75. […]
Cdk2(WT) or Cdk2(ES) (1 mg) was sequentially incubated with aliquots of CAK1 (3 × 0.05 mg) at r.t. for 4 hours at a time in 1.5 mL of a 30 mM Tris/HCl buffer (pH 7.5) containing 10 mM MgCl2, 10 mM ATP and 3 mM DTT. As CAK1 appeared to be-come rapidly inactivated in the presence of pCdk2, three repetitions were required to drive the reaction to completion. The resulting solution was incubated with 50 µL of glutathione-Sepharose beads and filtered to remove remaining CAK1.
Kinase assays were performed by coupling the conversion of ATP into ADP to the oxidation of NADH (Abs = 340 nm) into NAD+, mediated by lactate dehydrogenase (LDH) and pyruvate kinase (PK). WT, mutant or ligand-conjugated pCdk2 (12.5 or 50 nM) was preincubated with Cyclin A2 (20 nM) in a buffer containing 50 mM Tris/HCl, 10 mM MgCl2, 5 mM DTT, 1 mM phosphoenolpyruvate, 0.24 mM NADH, 10 U mL-1 LDH, 14 U mL-1 PK and 5% DMSO at 37 °C for 30 minutes. Reactions were initiated by addition of 0.5 mM ATP and 0.24 mM substrate peptide (PKTPKKAKKL) and the absorbance at 340 nm was moni-tored for two hours. Assays were conducted at 37 °C and carried out in clear 384-well plates (Nunc) using a SpectraMax i3x plate reader (Molecular Devices) with a final volume of 20 µL in each well. After plotting Abs 340 against time, enzyme velocity was measured from the gradient during the linear phase of product accumulation.
Q. Concentration dependent qIT
The rate of reaction (kobs) for the reaction between each acrylamide (25, 50, 125, 250 and 500 µM) with Cdk2(ES) (5 µM) was determined us qIT (see D. Rate Determination by qIT) in duplicate. The average kobs was plotted against acrylamide concen-tration and hyperbolic regression analysis performed using Prism 8.0 software (GraphPad) to derive kinact and Ki.

The mark [4] stands for this setting: acrylamide 11 compared with acrylamide 9.

For `C=CC(=O)N1CCn2c1nc1ccccc12` [compound 2], the kinact/KI at 500 µM in assay [1] (fragment 0.5 mM) turned out to be 0.68 M⁻¹ s⁻¹. In addition, the “GSH: kobs/[I]” value in assay [2] stood at 5.34 M⁻¹ s⁻¹.
For the compound `C=CC(=O)N1CCCc2cc(C(=O)O)ccc21` [compound 3], the “covalent SAR by REF-based qIT analysis” value in assay [1] is reported as “complete loss of activity”.
The same measure, in the same setting: the entry for `C=CC(=O)N1CCCc2cc(C(N)=O)ccc21` [compound 4] is “complete loss of activity”; for `C#CCNC(=O)c1ccc2c(c1)CCCN2C(=O)C=C` [compound 5] it is “well tolerated”.
Still for that read-out and setting: then `C=CC(=O)N1CCN(C(C)=O)c2ccccc21` [compound 7], with “loss of activity”; and `C=CC(=O)N1CCc2cc(C(=O)OC)ccc21` [compound 8], with “tenfold loss in REF”.
Regarding `C=CC(=O)N1CCN(CC)c2cc(C(=O)OC)ccc21` [compound 9], the kinact/KI at 500 µM in assay [1] (fragment 0.5 mM) was 8.48 M⁻¹ s⁻¹. In addition, the “rate of reaction with Cdk2(ES) relative to acrylamide 1” value in assay [1] (qIT) is listed as “six times faster than acrylamide 1”. Also, in assay [1] (rate with Cdk2(ES) relative to rate with GSH, fragment 0.5 mM, thiol 5 μM), the “rate enhancement factor (REF)” value is given as 182. In assay [3], the kinact/KI is 4.76 M⁻¹ s⁻¹, the Ki stood at 416 µM and the kinact amounted to 0.00198 s⁻¹.
In the case of `C=CC(=O)N1CCN(C)c2cc(C(=O)OC)ccc21` [compound 10], in assay [1], the “covalent SAR by REF-based qIT analysis” value is recorded as “less Cdk2(ES) selective”. Also, the kinact/KI at 500 µM in assay [1] (fragment 0.5 mM) stood at 1.91 M⁻¹ s⁻¹.
Consider `C=CC(=O)N1CCN(CC2CC2)c2cc(C(=O)OC)ccc21` [compound 11], for which the “fold increase in REF” value in assay [1] (setting [4]) came out at 4.3 fold. For the same compound, the “covalent SAR by REF-based qIT analysis” value in assay [1] is listed as “significant improvement in REF”. Also, the kinact/KI at 500 µM in assay [1] (fragment 0.5 mM) came to 19.5 M⁻¹ s⁻¹. Besides, the “fold increase in kinact/Ki” value in assay [3] (setting [4]) came to 3.7 fold. Moreover, in assay [3], the kinact/KI came out at 17.7 M⁻¹ s⁻¹, the Ki stood at 102 µM and the kinact amounted to 0.00181 s⁻¹.

What is called Ki is a measure of affinity in units of concentration, obtained from inhibition or displacement. Lower therefore signals tighter binding. As usually defined, the kinact is the rate constant of inactivation at saturating inhibitor.
